From patent US12564559B2, “Combinations of LSD1 inhibitors for use in the treatment of solid tumors” (Oryzon Genomics, S.A., priority 2016, dated 2026)
Read-outs that look alike come from different tables or passages of the source.

Key:
NCI-H1876 [1] = experiment: Growth Inhibition (ATPLite), SCLC cell line treated for 7 days (Example 1); assay type: cell-based, human; details: NCI-H1876, “classic” neuroendocrine, FIG. 1A
Experimental: (§1) Once cells have been expanded and divided at their expected doubling times, screening was started. Cells were seeded in growth media in black 384-well tissue culture treated plates at 500 cells per well (except where noted in Analyzer). Cells were equilibrated in assay plates via centrifugation and placed in incubators attached to the Dosing Modules at 37° C. for twenty-four hours before treatment. […] These Tzero (T0) plates were read using ultra-sensitive luminescence on Envision Plate Readers.

NCI-H510 = experiment: as above; assay type: cell-based, human; details: NCI-H510, “classic” neuroendocrine, FIG. 1B
Experimental: as §1

NCI-H526 model = experiment: NCI-H526 xenograft model, combination with etoposide and carboplatin (Example 4, FIG. 2B); assay type: in vivo, nu/nu mice; details: added at 20 upk 5/2 for three weeks to SOC (etoposide + carboplatin)
Experimental: 8-12-week old nu/nu mice were injected with 1×10^7 H526 cells or […] SHP-77 resuspended in 100 μL of 1:1 mixture of Matrigel® and PBS. Tumors were staged at 100-150 mm^3 animals and distributed into dosing groups. […] Carboplatin was administered i.p. at a dose of 100 mpk weekly for three weeks (qwkx3). […] Tumor volume was measure biweekly using a digital caliber. The endpoint of the experiment was a tumor volume of 1000 mm^3 or 90 days, whichever came first. Statistical analysis was performed using unpaired t-test and Gehan-Breslow-Wilcoxon test.

H510A xenograft model = experiment: NCI-H510A xenograft model, in vivo tumor growth inhibition (Example 9, FIG. 9); design: species or system athymic nude mice; details: 40 μg per kg five days on/two days off; after 21 days of dosing; compared to untreated controls
Experimental: 7-8-week old athymic nude mice animals were injected with 5×10^6 H510A cells resuspended in 100 μL of 1:1 mixture of Matrigel® matrix (Corning Inc., Tewksbury/MA, C. S. Hughes et al.^113) and PBS. Tumors were staged at 200-300 mm^3 animals and distributed into dosing groups. […] Tumor volume was measure biweekly using a digital caliber. The study was concluded when mean tumor volume within control group reached 2000 mm^3 or 28 days post-staging. Statistical analysis was performed using unpaired t-test.

DMS-114 = experiment: Cell response to LSD1 inhibition, SCLC cell line cultured 4 days (Example 5); assay type: cell-based, human; details: DMS-114, SubType V; for EC50: Homo sapiens, 96 h
From the text: (§2) As a positive control for cytotoxicity the Hsp90 inhibitor 17-N-allylamino-17-demethoxygeldanamycin (17-AAG, a geldanamycin analogue) was used as positive control in serial dilution.

NCI-H1048 = experiment: as above; assay type: cell-based, human; details: NCI-H1048, SubType V; for EC50: Homo sapiens, 96 h
From the text: as §2

NCI-H1417 = experiment: as above; assay type: cell-based, human; details: NCI-H1417, SubType C; for EC50: Homo sapiens, 96 h
From the text: as §2

NCI-H146 = experiment: as above; assay type: cell-based, human; details: NCI-H146, SubType C; for EC50: Homo sapiens, 96 h
From the text: as §2

NCI-H1876 [2] = experiment: as above; assay type: cell-based, human; details: NCI-H1876, SubType C; for EC50: Homo sapiens, 96 h
From the text: as §2

NCI-H187 = experiment: as above; assay type: cell-based, human; details: NCI-H187, SubType C; for EC50: Homo sapiens, 96 h
From the text: as §2

NCI-H2029 = experiment: as above; assay type: cell-based, human; details: NCI-H2029, SubType (C); for EC50: Homo sapiens, 96 h
From the text: as §2

NCI-H2081 = experiment: as above; assay type: cell-based, human; details: NCI-H2081, SubType C; for EC50: Homo sapiens, 96 h
From the text: as §2

NCI-H2171 = experiment: as above; assay type: cell-based, human; details: NCI-H2171, SubType V; for EC50: Homo sapiens, 96 h
From the text: as §2

NCI-H2227 = experiment: as above; assay type: cell-based, human; details: NCI-H2227, SubType C; for EC50: Homo sapiens, 96 h
From the text: as §2

NCI-H345 = experiment: as above; assay type: cell-based, human; details: NCI-H345, SubType C; for EC50: Homo sapiens, 96 h
From the text: as §2

NCI-H446 = experiment: as above; assay type: cell-based, human; details: NCI-H446, SubType V; for EC50: Homo sapiens, 96 h
From the text: as §2

NCI-H510A = experiment: as above; assay type: cell-based, human; details: SubType C; for EC50: Homo sapiens, 96 h
From the text: as §2

NCI-H526 = experiment: as above; assay type: cell-based, human; details: NCI-H526, SubType V; for EC50: Homo sapiens, 96 h
From the text: as §2

NCI-H69 = experiment: as above; assay type: cell-based, human; details: NCI-H69, SubType C; for EC50: Homo sapiens, 96 h
From the text: as §2

NCI-H748 = experiment: as above; assay type: cell-based, human; details: NCI-H748, SubType C; for EC50: Homo sapiens, 96 h
From the text: as §2

NCI-H82 = experiment: as above; assay type: cell-based, human; details: NCI-H82, SubType V; for EC50: Homo sapiens, 96 h
From the text: as §2

SBC-5 = experiment: as above; assay type: cell-based, human; details: SBC-5, SubType (V); for EC50: Homo sapiens, 96 h
From the text: as §2

SHP-77 = experiment: as above; assay type: cell-based, human; details: SHP-77, SubType V(C); for EC50: Homo sapiens, SHP77, 96 h
From the text: as §2

[3] = read-out: Sensitivity to LSD1 inh.

Q: What does the source list for `N[C@H]1CC[C@H](N[C@@H]2C[C@H]2c2ccccc2)CC1` [listing 1 of 2 here]?
A: sensitivity of cell line to the compound (NCI-H1876 [1]): high level of sensitivity; sensitivity of cell line to the compound (NCI-H510): high level of sensitivity; duration of tumor regression (NCI-H526 model): improved the duration of tumor regression; delay of tumor regrowth (NCI-H526 model; after the suspension of dosing): 30 days; tumor growth inhibition (H510A xenograft model): 34%

Q: `N[C@H]1CC[C@H](N[C@@H]2C[C@H]2c2ccccc2)CC1` [listing 2 of 2 here] was tested. Which “Max. Response (%)” value (DMS-114) did it give?
A: 0%

Q: What about the EC50 (DMS-114; read-out: EC50) of the same compound?
A: > 50 nM

Q: What about the EC50 (DMS-114; [3]) of the same compound?
A: ≥ 50 nM

Q: And the EC50 (NCI-H1048; read-out: EC50)?
A: > 50 nM

Q: And the EC50 (NCI-H1048; [3])?
A: ≥ 50 nM

Q: And the “Max. Response (%)” value (NCI-H1048)?
A: 27%

Q: And the EC50 (NCI-H1417; read-out: EC50)?
A: 0.302 nM

Q: And the EC50 (NCI-H1417; [3])?
A: < 50 nM

Q: What about the “Max. Response (%)” value (NCI-H1417) of the same compound?
A: 77%

Q: And the EC50 (NCI-H146; read-out: EC50)?
A: 0.1 nM

Q: And the EC50 (NCI-H146; [3])?
A: < 50 nM

Q: What about the “Max. Response (%)” value (NCI-H146) of the same compound?
A: 48%

Q: And the EC50 (NCI-H1876 [2]; read-out: EC50)?
A: 0.0432 nM

Q: What about the EC50 (NCI-H1876 [2]; [3]) of the same compound?
A: < 50 nM

Q: And the “Max. Response (%)” value (NCI-H1876 [2])?
A: 145%

Q: And the EC50 (NCI-H187; read-out: EC50)?
A: 0.136 nM

Q: And the EC50 (NCI-H187; [3])?
A: < 50 nM

Q: And the “Max. Response (%)” value (NCI-H187)?
A: 61%

Q: And the EC50 (NCI-H2029; read-out: EC50)?
A: > 50 nM

Q: And the EC50 (NCI-H2029; [3])?
A: ≥ 50 nM

Q: What about the “Max. Response (%)” value (NCI-H2029) of the same compound?
A: 0%

Q: And the EC50 (NCI-H2081; read-out: EC50)?
A: 0.92 nM

Q: What about the EC50 (NCI-H2081; [3]) of the same compound?
A: < 50 nM

Q: What about the “Max. Response (%)” value (NCI-H2081) of the same compound?
A: 10%

Q: And the EC50 (NCI-H2171; read-out: EC50)?
A: > 50 nM

Q: And the EC50 (NCI-H2171; [3])?
A: ≥ 50 nM

Q: And the “Max. Response (%)” value (NCI-H2171)?
A: 0%

Q: What about the EC50 (NCI-H2227; read-out: EC50) of the same compound?
A: > 50 nM

Q: And the EC50 (NCI-H2227; [3])?
A: ≥ 50 nM

Q: What about the “Max. Response (%)” value (NCI-H2227) of the same compound?
A: 0%

Q: And the EC50 (NCI-H345; read-out: EC50)?
A: 0.0275 nM

Q: And the EC50 (NCI-H345; [3])?
A: < 50 nM

Q: And the “Max. Response (%)” value (NCI-H345)?
A: 7%

Q: What about the EC50 (NCI-H446; read-out: EC50) of the same compound?
A: > 50 nM

Q: And the EC50 (NCI-H446; [3])?
A: ≥ 50 nM

Q: And the “Max. Response (%)” value (NCI-H446)?
A: 7%

Q: And the EC50 (NCI-H510A; read-out: EC50)?
A: 0.315 nM

Q: What about the EC50 (NCI-H510A; [3]) of the same compound?
A: < 50 nM

Q: And the “Max. Response (%)” value (NCI-H510A)?
A: 68%

Q: And the EC50 (NCI-H526; read-out: EC50)?
A: 0.632 nM

Q: And the EC50 (NCI-H526; [3])?
A: < 50 nM

Q: What about the “Max. Response (%)” value (NCI-H526) of the same compound?
A: 35%

Q: And the EC50 (NCI-H69; read-out: EC50)?
A: 0.585 nM

Q: And the EC50 (NCI-H69; [3])?
A: < 50 nM

Q: What about the “Max. Response (%)” value (NCI-H69) of the same compound?
A: 44%

Q: What about the EC50 (NCI-H748; read-out: EC50) of the same compound?
A: 0.3 nM

Q: What about the EC50 (NCI-H748; [3]) of the same compound?
A: < 50 nM

Q: What about the “Max. Response (%)” value (NCI-H748) of the same compound?
A: 13%

Q: And the EC50 (NCI-H82; read-out: EC50)?
A: > 50 nM

Q: And the EC50 (NCI-H82; [3])?
A: ≥ 50 nM

Q: And the “Max. Response (%)” value (NCI-H82)?
A: 0%

Q: And the EC50 (SBC-5; read-out: EC50)?
A: > 50 nM

Q: What about the EC50 (SBC-5; [3]) of the same compound?
A: ≥ 50 nM

Q: What about the “Max. Response (%)” value (SBC-5) of the same compound?
A: 23%

Q: What about the EC50 (SHP-77; read-out: EC50) of the same compound?
A: > 50 nM

Q: And the EC50 (SHP-77; [3])?
A: ≥ 50 nM

Q: What about the “Max. Response (%)” value (SHP-77) of the same compound?
A: 0%
